Reference: ChEMBL document CHEMBL3580564, “Semisynthetic Studies on and Biological Evaluation of N-Methyllaurotetanine Analogues as Ligands for 5-HT Receptors” (J Nat Prod, 2015)

How the values were obtained:
[1] = target: Alpha-1B adrenergic receptor (Homo sapiens, UniProt P35368); assay: Displacement of [3H]prazosin from human recombinant adrenergic alpha1B receptor expressed in HEKT cell membranes by radioligand binding assay
[2] = target: 5-hydroxytryptamine receptor 5A (Homo sapiens, UniProt P47898); assay: Displacement of [3H]LSD from human recombinant 5-HT5A receptor expressed in Flp-In CHO cell membranes by radioligand binding assay
[3] = target: Muscarinic acetylcholine receptor M1 (Homo sapiens) (UniProt P11229); assay: Displacement of [3H]QNB/[3H]]NMS from human recombinant muscarinic M1 receptor expressed in CHO cell membranes by radioligand binding assay; details: concentration not given here
[4] = target: Mu-type opioid receptor (Homo sapiens) (UniProt P35372); assay: Displacement of [3H]DAMGO from human recombinant MOR expressed in HEK cell membranes by radioligand binding assay; details: HEK293, concentration not given here
[5] = target: Alpha-1D adrenergic receptor (Homo sapiens) (UniProt P25100); assay: Displacement of [3H]prazosin from human recombinant adrenergic alpha1D receptor by radioligand binding assay; details: concentration not given here
[6] = target: D(2) dopamine receptor (Homo sapiens) (UniProt P14416); assay: Displacement of [3H]N-methylspiperone from human recombinant dopamine D2 receptor expressed in fibroblasts cell membranes by radioligand binding assay; details: Fibroblast, concentration not given here
[7] = target: Histamine H3 receptor (Homo sapiens) (UniProt Q9Y5N1); assay: Displacement of [3H]alpha-methylhistamine from human recombinant histamine H3 receptor expressed in HEKFlp-In cell membranes by radioligand binding assay; details: concentration not given here
[8] = target: Sodium-dependent serotonin transporter (Homo sapiens, UniProt P31645); assay: Displacement of [3H]citalopram from human recombinant SERT expressed in HEK cell membranes by radioligand binding assay; design: species or system HEK293
[9] = target: Sodium-dependent noradrenaline transporter (Homo sapiens, UniProt P23975); assay: Displacement of [3H]nisoxetine from human recombinant NET expressed in HEK cell membranes by radioligand binding assay; design: species or system HEK293
[10] = target: Alpha-1A adrenergic receptor (Homo sapiens) (UniProt P35348); assay: Displacement of [3H]prazosin from human recombinant adrenergic alpha1A receptor by radioligand binding assay; details: concentration not given here
[11] = target: Sigma non-opioid intracellular receptor 1 (Cavia porcellus) (UniProt Q60492); assay: Binding affinity to guinea pig sigma1 receptor by radioligand binding assay; details: concentration not given here
[12] = target: T1, 5-hydroxytryptamine receptor 1A (Homo sapiens, UniProt P08908); assay: Displacement of [3H]Way100635 from human recombinant 5-HT1A receptor expressed in CHO cell membranes by radioligand binding assay
T1 sequence (P08908 whole entry): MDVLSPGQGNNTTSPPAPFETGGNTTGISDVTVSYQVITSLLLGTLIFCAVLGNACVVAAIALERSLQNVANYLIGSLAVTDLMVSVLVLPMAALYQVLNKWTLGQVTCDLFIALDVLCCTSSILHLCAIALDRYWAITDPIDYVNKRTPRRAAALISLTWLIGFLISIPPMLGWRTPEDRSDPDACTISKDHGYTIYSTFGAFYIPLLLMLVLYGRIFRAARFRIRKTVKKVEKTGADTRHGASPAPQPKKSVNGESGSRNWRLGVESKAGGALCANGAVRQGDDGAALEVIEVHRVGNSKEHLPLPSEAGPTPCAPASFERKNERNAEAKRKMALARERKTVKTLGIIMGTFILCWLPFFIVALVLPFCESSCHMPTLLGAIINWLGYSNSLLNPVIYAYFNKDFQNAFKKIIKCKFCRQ

Rattus norvegicus [13] = organism: Rattus norvegicus; assay: Displacement of [3H]muscimol from rat brain GABAA receptor by radioligand binding assay; details: concentration not given here
[14] = target: Histamine H1 receptor (Homo sapiens) (UniProt P35367); assay: Displacement of [3H]pyrilamine from human recombinant histamine H1 receptor expressed in HEK cell membranes by radioligand binding assay; details: HEK293, concentration not given here
D(1A) dopamine receptor = D(1A) dopamine receptor (Homo sapiens, UniProt P21728); assay: Displacement of [3H]SCH23390 from human recombinant dopamine D1 receptor expressed in HEKT cell membranes by radioligand binding assay
[15] = target: Translocator protein (Rattus norvegicus) (UniProt P16257); assay: Displacement of [3H]PK11195 from rat brain PBR by radioligand binding assay; details: concentration not given here
[16] = target: Muscarinic acetylcholine receptor M2 (Homo sapiens) (UniProt P08172); assay: Displacement of [3H]QNB/[3H]]NMS from human recombinant muscarinic M2 receptor expressed in CHO cell membranes by radioligand binding assay; details: concentration not given here
[17] = target: Kappa-type opioid receptor (Homo sapiens) (UniProt P41145); assay: Displacement of [3H]U69593 from human recombinant KOR expressed in HEK cell membranes by radioligand binding assay; details: HEK293, concentration not given here
D(3) dopamine receptor = D(3) dopamine receptor (Homo sapiens, UniProt P35462); assay: Displacement of [3H]N-methylspiperone from human recombinant dopamine D3 receptor expressed in HEKT cell membranes by radioligand binding assay
[18] = target: Muscarinic acetylcholine receptor M4 (Homo sapiens) (UniProt P08173); assay: Displacement of [3H]QNB/[3H]]NMS from human recombinant muscarinic M4 receptor expressed in CHO cell membranes by radioligand binding assay; details: concentration not given here
[19] = target: Alpha-2C adrenergic receptor (Homo sapiens, UniProt P18825); assay: Displacement of [3H]rauwolscine from human recombinant adrenergic alpha2C receptor expressed in MDCK cell membranes by radioligand binding assay
[20] = target: Histamine H4 receptor (Homo sapiens) (UniProt Q9H3N8); assay: Displacement of [3H]histamine from human recombinant histamine H4 receptor by radioligand binding assay; details: concentration not given here
[21] = target: Alpha-2B adrenergic receptor (Homo sapiens) (UniProt P18089); assay: Displacement of [3H]rauwolscine from human recombinant adrenergic alpha2B receptor expressed in HEKT cell membranes by radioligand binding assay; details: concentration not given here
[22] = target: 5-hydroxytryptamine receptor 2C (Homo sapiens, UniProt P28335); assay: Displacement of [3H]mesulergine from human recombinant 5-HT2C receptor expressed in Flp-IN HEK cell membranes by radioligand binding assay; design: species or system HEK293
[23] = target: Beta-2 adrenergic receptor (Homo sapiens, UniProt P07550); assay: Displacement of [3H]CGP12177 from human recombinant adrenergic beta2 receptor expressed in CHO Flp-In cell membranes by radioligand binding assay
[24] = target: Sodium-dependent dopamine transporter (Homo sapiens, UniProt Q01959); assay: Displacement of [3H]WIN35428 from human recombinant DAT expressed in HEK cell membranes by radioligand binding assay; design: species or system HEK293
[25] = target: 5-hydroxytryptamine receptor 7 (Homo sapiens, UniProt P34969); assay: Displacement of [3H]LSD from human recombinant 5-HT7 receptor expressed in HEK cell membranes by radioligand binding assay; design: species or system HEK293
[26] = target: Muscarinic acetylcholine receptor M5 (Homo sapiens) (UniProt P08912); assay: Displacement of [3H]QNB/[3H]]NMS from human recombinant muscarinic M5 receptor expressed in CHO cell membranes by radioligand binding assay; details: concentration not given here
[27] = target: D(4) dopamine receptor (Homo sapiens) (UniProt P21917); assay: Displacement of [3H]N-methylspiperone from human recombinant dopamine D4 receptor by radioligand binding assay; details: concentration not given here
[28] = target: 5-hydroxytryptamine receptor 1E (Homo sapiens) (UniProt P28566); assay: Displacement of [3H]5-HT from human recombinant 5-HT1E receptor expressed in HEK cell membranes by radioligand binding assay; details: HEK293, concentration not given here
[29] = target: 5-hydroxytryptamine receptor 2B (Homo sapiens, UniProt P41595); assay: Displacement of [3H]LSD from human recombinant 5-HT2B receptor expressed in HEK cell membranes by radioligand binding assay; design: species or system HEK293
Sigma 2 receptor = assay: Displacement of [3H]DTG from human recombinant sigma2 receptor by radioligand binding assay; details: concentration not given here
[30] = target: 5-hydroxytryptamine receptor 6 (Homo sapiens, UniProt P50406); assay: Displacement of [3H]LSD from human recombinant 5-HT6 receptor expressed in HEK cell membranes by radioligand binding assay; design: species or system HEK293
[31] = target: 5-hydroxytryptamine receptor 3A (Homo sapiens) (UniProt P46098); assay: Displacement of [3H]GR65630 from human recombinant 5-HT3 receptor expressed in HEKT cell membranes by radioligand binding assay; details: concentration not given here
Rattus norvegicus [32] = organism: Rattus norvegicus; assay: Displacement of [3H]flunitrazepam from rat brain benzodiazepine receptor by radioligand binding assay; details: concentration not given here
[33] = target: D(1B) dopamine receptor (Homo sapiens) (UniProt P21918); assay: Displacement of [3H]SCH23390 from human recombinant dopamine D5 receptor expressed in HEKT cell membranes by radioligand binding assay; details: concentration not given here
[34] = target: Muscarinic acetylcholine receptor M3 (Homo sapiens) (UniProt P20309); assay: Displacement of [3H]QNB/[3H]]NMS from human recombinant muscarinic M3 receptor expressed in CHO cell membranes by radioligand binding assay; details: concentration not given here
Homo sapiens = organism: Homo sapiens; assay: Selectivity index, ratio of Ki for human recombinant 5-HT1A receptor to Ki for human recombinant 5-HT7 receptor
[35] = target: Delta-type opioid receptor (Homo sapiens) (UniProt P41143); assay: Displacement of [3H]DADLE from human recombinant DOR expressed in HEK cell membranes by radioligand binding assay; details: HEK293, concentration not given here
Delta-type opioid receptor (Homo sapiens), sequence (P41143 whole entry): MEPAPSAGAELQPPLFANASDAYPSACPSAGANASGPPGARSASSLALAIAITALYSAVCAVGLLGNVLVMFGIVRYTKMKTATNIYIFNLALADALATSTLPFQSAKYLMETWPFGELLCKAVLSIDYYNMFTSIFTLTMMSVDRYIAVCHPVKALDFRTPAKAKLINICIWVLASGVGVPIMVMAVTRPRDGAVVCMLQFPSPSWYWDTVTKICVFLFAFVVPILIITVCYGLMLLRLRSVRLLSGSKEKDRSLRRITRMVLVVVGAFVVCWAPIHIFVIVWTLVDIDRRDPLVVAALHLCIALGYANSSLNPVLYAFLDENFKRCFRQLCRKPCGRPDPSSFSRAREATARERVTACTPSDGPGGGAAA

Alpha-2B adrenergic receptor (Homo sapiens), sequence (P18089 whole entry): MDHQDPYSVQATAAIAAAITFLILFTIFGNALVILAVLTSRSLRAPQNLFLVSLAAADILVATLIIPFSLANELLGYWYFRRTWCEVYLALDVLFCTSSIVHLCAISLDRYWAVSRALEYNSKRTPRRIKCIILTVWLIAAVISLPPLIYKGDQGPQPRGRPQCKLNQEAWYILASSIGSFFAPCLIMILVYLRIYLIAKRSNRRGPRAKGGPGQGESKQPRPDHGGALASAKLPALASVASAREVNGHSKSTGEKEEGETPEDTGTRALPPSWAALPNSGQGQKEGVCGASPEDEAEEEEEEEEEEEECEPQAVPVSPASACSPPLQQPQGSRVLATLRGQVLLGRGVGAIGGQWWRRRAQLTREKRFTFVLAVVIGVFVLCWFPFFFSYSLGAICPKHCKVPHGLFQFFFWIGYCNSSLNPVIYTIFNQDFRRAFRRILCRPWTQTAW
Mu-type opioid receptor (Homo sapiens), sequence (P35372 whole entry): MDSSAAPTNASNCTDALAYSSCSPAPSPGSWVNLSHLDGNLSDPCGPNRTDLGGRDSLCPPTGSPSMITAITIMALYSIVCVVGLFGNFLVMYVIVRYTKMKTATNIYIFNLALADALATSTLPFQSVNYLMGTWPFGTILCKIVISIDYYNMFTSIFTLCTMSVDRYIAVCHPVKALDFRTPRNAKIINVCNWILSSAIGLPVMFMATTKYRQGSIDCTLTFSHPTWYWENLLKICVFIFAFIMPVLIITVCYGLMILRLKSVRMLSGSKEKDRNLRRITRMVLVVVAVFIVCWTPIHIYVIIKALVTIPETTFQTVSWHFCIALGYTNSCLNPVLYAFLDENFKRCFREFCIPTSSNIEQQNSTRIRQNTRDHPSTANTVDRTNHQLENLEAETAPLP
5-hydroxytryptamine receptor 2B, sequence (P41595 whole entry): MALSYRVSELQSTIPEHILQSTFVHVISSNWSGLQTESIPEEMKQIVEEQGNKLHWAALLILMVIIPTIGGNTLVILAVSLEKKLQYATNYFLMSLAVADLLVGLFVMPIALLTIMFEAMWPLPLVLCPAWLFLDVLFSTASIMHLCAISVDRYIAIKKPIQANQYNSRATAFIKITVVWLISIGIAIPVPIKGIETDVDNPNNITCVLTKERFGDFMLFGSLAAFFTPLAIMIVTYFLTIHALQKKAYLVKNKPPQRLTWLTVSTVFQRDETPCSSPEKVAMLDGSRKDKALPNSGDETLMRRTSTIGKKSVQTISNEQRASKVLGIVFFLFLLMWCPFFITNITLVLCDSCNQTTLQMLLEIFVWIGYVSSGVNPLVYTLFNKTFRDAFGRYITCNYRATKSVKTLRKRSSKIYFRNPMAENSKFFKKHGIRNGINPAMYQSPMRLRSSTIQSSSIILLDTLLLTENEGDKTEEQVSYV
Sigma non-opioid intracellular receptor 1 (Cavia porcellus), sequence (Q60492 whole entry): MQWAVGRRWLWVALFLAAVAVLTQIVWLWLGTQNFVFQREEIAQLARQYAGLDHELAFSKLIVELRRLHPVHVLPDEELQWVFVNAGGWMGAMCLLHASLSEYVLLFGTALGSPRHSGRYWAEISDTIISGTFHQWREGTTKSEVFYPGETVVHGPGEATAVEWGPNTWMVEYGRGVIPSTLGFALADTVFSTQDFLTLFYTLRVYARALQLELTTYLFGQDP
Translocator protein (Rattus norvegicus), sequence (P16257 whole entry, looked up): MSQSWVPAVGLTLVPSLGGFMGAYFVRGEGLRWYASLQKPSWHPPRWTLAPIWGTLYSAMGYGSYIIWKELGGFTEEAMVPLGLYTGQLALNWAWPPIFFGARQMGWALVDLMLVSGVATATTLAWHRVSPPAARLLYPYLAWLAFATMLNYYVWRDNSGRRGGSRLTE
Muscarinic acetylcholine receptor M4 (Homo sapiens), sequence (P08173 whole entry): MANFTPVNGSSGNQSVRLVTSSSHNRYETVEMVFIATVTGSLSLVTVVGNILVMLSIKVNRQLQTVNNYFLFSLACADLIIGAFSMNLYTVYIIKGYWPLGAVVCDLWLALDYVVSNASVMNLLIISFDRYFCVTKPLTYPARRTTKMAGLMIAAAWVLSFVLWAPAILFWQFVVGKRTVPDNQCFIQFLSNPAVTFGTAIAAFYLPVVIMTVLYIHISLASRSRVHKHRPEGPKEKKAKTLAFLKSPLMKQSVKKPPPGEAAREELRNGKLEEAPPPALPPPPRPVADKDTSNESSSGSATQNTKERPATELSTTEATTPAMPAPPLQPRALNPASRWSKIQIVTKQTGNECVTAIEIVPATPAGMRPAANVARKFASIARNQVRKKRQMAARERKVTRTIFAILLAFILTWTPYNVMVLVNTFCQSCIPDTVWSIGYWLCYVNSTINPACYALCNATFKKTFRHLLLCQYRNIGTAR
D(2) dopamine receptor (Homo sapiens), sequence (P14416 whole entry): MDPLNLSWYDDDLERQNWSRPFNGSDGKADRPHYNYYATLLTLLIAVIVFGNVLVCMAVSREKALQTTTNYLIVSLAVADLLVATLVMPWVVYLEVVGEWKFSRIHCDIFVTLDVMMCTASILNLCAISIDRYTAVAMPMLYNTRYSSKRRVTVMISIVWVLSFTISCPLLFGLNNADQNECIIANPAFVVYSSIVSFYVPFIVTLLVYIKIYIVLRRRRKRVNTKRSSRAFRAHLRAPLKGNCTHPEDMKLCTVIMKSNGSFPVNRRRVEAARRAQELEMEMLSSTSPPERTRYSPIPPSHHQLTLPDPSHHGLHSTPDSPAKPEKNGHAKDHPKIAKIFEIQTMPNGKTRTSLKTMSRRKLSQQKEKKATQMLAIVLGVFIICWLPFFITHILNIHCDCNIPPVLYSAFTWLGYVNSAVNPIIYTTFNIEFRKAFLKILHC
Alpha-1D adrenergic receptor (Homo sapiens), sequence (P25100 whole entry): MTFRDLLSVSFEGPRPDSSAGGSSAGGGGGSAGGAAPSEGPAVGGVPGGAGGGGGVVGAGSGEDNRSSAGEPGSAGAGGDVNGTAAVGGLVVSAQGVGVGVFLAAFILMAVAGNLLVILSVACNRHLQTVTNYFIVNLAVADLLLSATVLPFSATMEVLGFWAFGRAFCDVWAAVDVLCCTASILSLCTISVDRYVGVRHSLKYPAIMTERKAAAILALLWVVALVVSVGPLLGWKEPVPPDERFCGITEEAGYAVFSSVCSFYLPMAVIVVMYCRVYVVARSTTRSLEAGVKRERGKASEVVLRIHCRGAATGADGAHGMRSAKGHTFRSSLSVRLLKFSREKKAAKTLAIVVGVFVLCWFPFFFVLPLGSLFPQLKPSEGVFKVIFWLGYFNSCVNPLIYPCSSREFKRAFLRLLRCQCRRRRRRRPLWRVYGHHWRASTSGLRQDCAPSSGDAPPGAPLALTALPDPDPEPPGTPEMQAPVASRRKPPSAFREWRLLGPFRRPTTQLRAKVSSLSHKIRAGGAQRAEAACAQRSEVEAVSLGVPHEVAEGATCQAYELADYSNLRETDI
Muscarinic acetylcholine receptor M2 (Homo sapiens), sequence (P08172 whole entry): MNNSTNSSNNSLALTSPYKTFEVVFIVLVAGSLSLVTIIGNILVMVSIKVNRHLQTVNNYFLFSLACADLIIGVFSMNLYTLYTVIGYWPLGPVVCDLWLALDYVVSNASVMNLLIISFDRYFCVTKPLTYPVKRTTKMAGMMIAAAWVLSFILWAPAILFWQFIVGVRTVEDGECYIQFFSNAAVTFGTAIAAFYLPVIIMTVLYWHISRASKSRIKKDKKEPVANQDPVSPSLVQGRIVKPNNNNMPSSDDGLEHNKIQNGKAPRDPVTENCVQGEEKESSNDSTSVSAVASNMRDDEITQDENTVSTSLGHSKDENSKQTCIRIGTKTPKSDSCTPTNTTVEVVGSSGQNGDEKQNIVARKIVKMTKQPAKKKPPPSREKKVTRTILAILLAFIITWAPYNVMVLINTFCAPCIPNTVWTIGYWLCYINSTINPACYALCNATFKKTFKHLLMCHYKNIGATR
Histamine H1 receptor (Homo sapiens), sequence (P35367 whole entry): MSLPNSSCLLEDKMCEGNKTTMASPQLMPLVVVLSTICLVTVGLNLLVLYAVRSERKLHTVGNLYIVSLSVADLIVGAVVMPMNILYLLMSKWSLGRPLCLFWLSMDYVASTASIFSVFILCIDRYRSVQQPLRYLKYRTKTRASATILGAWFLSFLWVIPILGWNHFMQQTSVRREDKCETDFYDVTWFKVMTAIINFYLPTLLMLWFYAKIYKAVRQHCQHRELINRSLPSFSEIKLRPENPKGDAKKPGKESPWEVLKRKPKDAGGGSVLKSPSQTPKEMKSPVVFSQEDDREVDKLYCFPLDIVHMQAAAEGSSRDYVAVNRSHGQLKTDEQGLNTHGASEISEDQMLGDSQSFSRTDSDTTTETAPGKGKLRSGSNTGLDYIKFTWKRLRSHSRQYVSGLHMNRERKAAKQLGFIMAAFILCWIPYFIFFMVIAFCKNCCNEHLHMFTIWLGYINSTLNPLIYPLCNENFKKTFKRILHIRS
D(3) dopamine receptor, sequence (P35462 whole entry): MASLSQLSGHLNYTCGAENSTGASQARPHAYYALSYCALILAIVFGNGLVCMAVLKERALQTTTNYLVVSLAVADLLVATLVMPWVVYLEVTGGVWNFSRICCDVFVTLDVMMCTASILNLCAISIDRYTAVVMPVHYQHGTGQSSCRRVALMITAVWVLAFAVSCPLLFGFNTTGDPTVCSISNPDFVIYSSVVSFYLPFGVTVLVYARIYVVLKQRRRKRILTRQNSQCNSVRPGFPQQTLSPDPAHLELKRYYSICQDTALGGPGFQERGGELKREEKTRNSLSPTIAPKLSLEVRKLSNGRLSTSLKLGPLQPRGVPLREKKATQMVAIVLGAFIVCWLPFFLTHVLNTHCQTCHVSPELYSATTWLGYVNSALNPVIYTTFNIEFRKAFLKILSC

COc1cc2c(cc1O)C[C@H]1c3c(cc(OC)c(OC)c3-2)CCN1C
16: Ratio Ki (Homo sapiens)
373 nM: Ki (D(1A) dopamine receptor)
20 nM: Ki [25]
< 50%: inhibition [3] | inhibition [4] | inhibition [5] | inhibition [6] | inhibition [7] | inhibition [10] | inhibition [11] | inhibition (Rattus norvegicus [13]) | inhibition [14] | inhibition [15] | inhibition [16] | inhibition [17] | inhibition [18] | inhibition [20] | inhibition [21] | inhibition [26] | inhibition [27] | inhibition [28] | inhibition (Sigma 2 receptor) | inhibition [31] | inhibition (Rattus norvegicus [32]) | inhibition [33] | inhibition [34] | inhibition [35]
> 950 nM: Ki [1] | Ki [8] | Ki [9] | Ki (D(3) dopamine receptor) | Ki [19] | Ki [22] | Ki [23] | Ki [24]
314 nM: Ki [12]
323 nM: Ki [29]
566 nM: Ki [2]
306 nM: Ki [30]
